The target in assay [1] is T1, Perforin-1 (Homo sapiens) (UniProt P14222).
T1 sequence (whole entry): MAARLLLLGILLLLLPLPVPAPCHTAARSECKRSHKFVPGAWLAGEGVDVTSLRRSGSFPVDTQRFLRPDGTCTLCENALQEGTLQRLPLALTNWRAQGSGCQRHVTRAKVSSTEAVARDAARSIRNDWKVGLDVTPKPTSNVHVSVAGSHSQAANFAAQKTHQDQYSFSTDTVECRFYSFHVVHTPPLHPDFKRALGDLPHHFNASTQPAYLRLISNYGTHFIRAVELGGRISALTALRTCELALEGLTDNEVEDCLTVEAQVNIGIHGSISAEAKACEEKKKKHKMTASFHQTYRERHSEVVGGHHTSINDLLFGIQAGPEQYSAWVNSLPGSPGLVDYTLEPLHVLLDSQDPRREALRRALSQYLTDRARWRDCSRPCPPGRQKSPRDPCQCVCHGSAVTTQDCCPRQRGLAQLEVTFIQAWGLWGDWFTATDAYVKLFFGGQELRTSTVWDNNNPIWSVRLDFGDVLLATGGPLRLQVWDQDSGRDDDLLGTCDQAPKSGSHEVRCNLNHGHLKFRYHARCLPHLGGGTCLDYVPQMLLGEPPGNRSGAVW
The experiment in a line: Inhibition of recombinant perforin (unknown origin) assessed as decrease in lysis of 51Cr-labelled human Jurkat cells by measuring 51Cr release at 20 uM preincubated for 30 mins followed by cell line addition measured after 4 hrs in presence of 10% mouse serum by gamma counting method relative to control.

Assay [2] can be described thus: Inhibition of N-terminal His-tagged recombinant human p85alpha expressed in baculovirus infected insect Sf21 cells/recombinant wild type mouse p110alpha using phosphatidylinositol as substrate in presence of [33P]-ATP.

Active and inactive are the calls of the source. No cut-off for these calls is given here.

As for `O=C1NCc2ccc(-c3ccc(-c4cncc(NS(=O)(=O)c5ccc(F)cc5F)c4)s3)cc21`, the inhibition result in assay [1] was “Active”.

As to `O=C1NCc2cc(-c3ccc(-c4cncc(NS(=O)(=O)c5ccc(F)cc5F)c4)s3)ccc21`, in assay [1], the inhibition entry was “Active”.

Consider `O=C1Cc2cc(-c3ccc(-c4cncc(NS(=O)(=O)c5ccc(F)cc5F)c4)s3)ccc2N1`, for which, in assay [1], the inhibition entry was “Active”.

For `CN1Cc2cc(-c3ccc(-c4cncc(NS(=O)(=O)c5ccc(F)cc5F)c4)s3)ccc2C1=O`, the inhibition entry in assay [1] was “Active”. Also, the IC50 in assay [2] was above 6.25 µM.

Broadly, the IC50 is the concentration that gives 50% inhibition.

The values are drawn from ChEMBL document CHEMBL4002628, “Benzenesulphonamide inhibitors of the cytolytic protein perforin” (Bioorg Med Chem Lett, 2017).
